Test results: PMC9150124, “Design of a Potent, Selective, and Brain-Penetrant Inhibitor of Wnt-Deactivating Enzyme Notum by Optimization of a Crystallographic Fragment Hit” (Journal of Medicinal Chemistry, 2022)

Key:
Test in all cases: SelectScreen kinase profiling, SSBK ZLyte SP Technology
Assay type in all cases: biochemical
[1] = target: kinase named in conditions (Homo sapiens, UniProt P21709); settings: EPHA1, 10 μM
Method: (§1) Kinase selectivity screening was performed by Thermo Fisher Scientific (Paisley, U.K.) in their SelectScreen Biochemical Kinase Profiling Service. Assay information and data are presented in the Supporting Information.
(§2) Kinase selectivity screening was performed by ThermoFisher Scientific (Paisley, U.K.) in their SelectScreenTM
(§3) Biochemical Kinase Profiling service .

[2] = target: kinase named in conditions (Homo sapiens, UniProt P54762); settings: EPHB1, 10 μM
Method: as §1, §2, §3

[3] = target: kinase named in conditions (Homo sapiens, UniProt P07332); settings: FES (FPS), 10 μM
Method: as §1, §2, §3

[4] = target: kinase named in conditions (Homo sapiens, UniProt Q13188); settings: STK3 (MST2), 10 μM
Method: as §1, §2, §3

[5] = target: kinase named in conditions (Homo sapiens, UniProt P00519); settings: ABL1, 10 μM
Method: as §1, §2, §3

[6] = target: kinase named in conditions (Homo sapiens, UniProt Q05513); settings: PRKCZ (PKC zeta), 10 μM
Method: as §1, §2, §3

[7] = target: kinase named in conditions (Homo sapiens, UniProt P36507); settings: MAP2K2 (MEK2), 10 μM
Method: as §1, §2, §3

[8] = target: kinase named in conditions (Homo sapiens, UniProt P49137); settings: MAPKAPK2, 10 μM
Method: as §1, §2, §3

[9] = target: kinase named in conditions (Homo sapiens, UniProt P43405); settings: SYK, 10 μM
Method: as §1, §2, §3

[10] = target: kinase named in conditions (Homo sapiens, UniProt Q6VAB6); settings: KSR2, 10 μM
Method: as §1, §2, §3

[11] = target: kinase named in conditions (Homo sapiens, UniProt O95819); settings: MAP4K4 (HGK), 10 μM
Method: as §1, §2, §3

[12] = target: kinase named in conditions (Homo sapiens, UniProt P31751); settings: AKT2 (PKB beta), 10 μM
Method: as §1, §2, §3

[13] = target: kinase named in conditions (Homo sapiens, UniProt Q7KZI7); settings: MARK2, 10 μM
Method: as §1, §2, §3

[14] = target: kinase named in conditions (Homo sapiens, UniProt Q9P289); settings: MST4, 10 μM
Method: as §1, §2, §3

[15] = target: kinase named in conditions (Homo sapiens, UniProt P07949, V804E); settings: RET V804E, 10 μM
Method: as §1, §2, §3

[16] = target: kinase named in conditions (Homo sapiens, UniProt P36888); settings: FLT3, 10 μM
Method: as §1, §2, §3

[17] = target: kinase named in conditions (Homo sapiens, UniProt O15075); settings: DCAMKL1 (DCLK1), 10 μM
Method: as §1, §2, §3

[18] = target: kinase named in conditions (Homo sapiens, UniProt P10721, V559D/V654A); settings: KIT V559D V654A, 10 μM
Method: as §1, §2, §3

[19] = target: kinase named in conditions (Homo sapiens, UniProt P16591); settings: FER, 10 μM
Method: as §1, §2, §3

[20] = target: kinase named in conditions (Homo sapiens, UniProt P15735); settings: PHKG2, 10 μM
Method: as §1, §2, §3

[21] = target: kinase named in conditions (Homo sapiens, UniProt Q13237); settings: PRKG2 (PKG2), 10 μM
Method: as §1, §2, §3

[22] = target: kinase named in conditions (Homo sapiens, UniProt Q15303); settings: ERBB4 (HER4), 10 μM
Method: as §1, §2, §3

[23] = target: kinase named in conditions (Homo sapiens, UniProt O96017); settings: CHEK2 (CHK2), 10 μM
Method: as §1, §2, §3

[24] = target: kinase named in conditions (Homo sapiens, UniProt P07949, Y791F); settings: RET Y791F, 10 μM
Method: as §1, §2, §3

[25] = target: kinase named in conditions (Homo sapiens, UniProt P54760); settings: EPHB4, 10 μM
Method: as §1, §2, §3

[26] = target: kinase named in conditions (Homo sapiens, UniProt Q5VT25); settings: CDC42 BPA (MRCKA), 10 μM
Method: as §1, §2, §3

[27] = target: kinase named in conditions (Homo sapiens, UniProt Q13470); settings: TNK1, 10 μM
Method: as §1, §2, §3

[28] = target: kinase named in conditions (Homo sapiens, UniProt P23458); settings: JAK1, 10 μM
Method: as §1, §2, §3

[29] = target: kinase named in conditions (Homo sapiens, UniProt P49674); settings: CSNK1E (CK1 epsilon), 10 μM
Method: as §1, §2, §3

[30] = target: kinase named in conditions (Homo sapiens, UniProt P11309); settings: PIM1, 10 μM
Method: as §1, §2, §3

[31] = target: kinase named in conditions (Homo sapiens, UniProt P49760); settings: CLK2, 10 μM
Method: as §1, §2, §3

[32] = target: kinase named in conditions (Homo sapiens, UniProt Q05397); settings: PTK2 (FAK), 10 μM
Method: as §1, §2, §3

[33] = target: kinase named in conditions (Homo sapiens, UniProt P16234, V561D); settings: PDGFRA V561D, 10 μM
Method: as §1, §2, §3

[34] = target: kinase named in conditions (Homo sapiens, UniProt Q96L34); settings: MARK4, 10 μM
Method: as §1, §2, §3

[35] = target: kinase named in conditions (Homo sapiens, UniProt Q9NYY3); settings: PLK2, 10 μM
Method: as §1, §2, §3

Sequence of kinase named in conditions (Homo sapiens, UniProt P07332) (P07332 whole entry): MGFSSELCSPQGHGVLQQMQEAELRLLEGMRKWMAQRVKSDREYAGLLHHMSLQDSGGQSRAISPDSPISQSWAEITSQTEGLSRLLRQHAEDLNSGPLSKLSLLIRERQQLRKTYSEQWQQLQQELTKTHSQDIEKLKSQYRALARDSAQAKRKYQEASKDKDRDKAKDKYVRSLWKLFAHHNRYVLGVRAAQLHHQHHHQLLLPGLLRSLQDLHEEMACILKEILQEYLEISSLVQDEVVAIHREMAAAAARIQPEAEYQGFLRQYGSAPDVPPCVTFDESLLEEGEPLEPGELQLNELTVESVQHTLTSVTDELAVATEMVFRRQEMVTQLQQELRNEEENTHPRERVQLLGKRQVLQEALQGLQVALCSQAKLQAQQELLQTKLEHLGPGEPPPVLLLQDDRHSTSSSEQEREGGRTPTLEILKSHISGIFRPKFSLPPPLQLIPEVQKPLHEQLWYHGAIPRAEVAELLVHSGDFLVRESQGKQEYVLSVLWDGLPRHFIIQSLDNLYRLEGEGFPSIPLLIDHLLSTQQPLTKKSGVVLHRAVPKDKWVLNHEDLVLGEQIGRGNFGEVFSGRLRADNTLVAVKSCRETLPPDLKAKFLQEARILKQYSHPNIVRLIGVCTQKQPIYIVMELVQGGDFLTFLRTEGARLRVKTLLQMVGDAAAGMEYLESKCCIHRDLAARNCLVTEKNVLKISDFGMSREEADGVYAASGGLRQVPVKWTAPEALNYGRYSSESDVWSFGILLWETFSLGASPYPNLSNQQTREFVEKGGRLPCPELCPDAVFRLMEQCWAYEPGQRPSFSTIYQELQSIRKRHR
Sequence of kinase named in conditions (Homo sapiens, UniProt Q5VT25) (Q5VT25 whole entry): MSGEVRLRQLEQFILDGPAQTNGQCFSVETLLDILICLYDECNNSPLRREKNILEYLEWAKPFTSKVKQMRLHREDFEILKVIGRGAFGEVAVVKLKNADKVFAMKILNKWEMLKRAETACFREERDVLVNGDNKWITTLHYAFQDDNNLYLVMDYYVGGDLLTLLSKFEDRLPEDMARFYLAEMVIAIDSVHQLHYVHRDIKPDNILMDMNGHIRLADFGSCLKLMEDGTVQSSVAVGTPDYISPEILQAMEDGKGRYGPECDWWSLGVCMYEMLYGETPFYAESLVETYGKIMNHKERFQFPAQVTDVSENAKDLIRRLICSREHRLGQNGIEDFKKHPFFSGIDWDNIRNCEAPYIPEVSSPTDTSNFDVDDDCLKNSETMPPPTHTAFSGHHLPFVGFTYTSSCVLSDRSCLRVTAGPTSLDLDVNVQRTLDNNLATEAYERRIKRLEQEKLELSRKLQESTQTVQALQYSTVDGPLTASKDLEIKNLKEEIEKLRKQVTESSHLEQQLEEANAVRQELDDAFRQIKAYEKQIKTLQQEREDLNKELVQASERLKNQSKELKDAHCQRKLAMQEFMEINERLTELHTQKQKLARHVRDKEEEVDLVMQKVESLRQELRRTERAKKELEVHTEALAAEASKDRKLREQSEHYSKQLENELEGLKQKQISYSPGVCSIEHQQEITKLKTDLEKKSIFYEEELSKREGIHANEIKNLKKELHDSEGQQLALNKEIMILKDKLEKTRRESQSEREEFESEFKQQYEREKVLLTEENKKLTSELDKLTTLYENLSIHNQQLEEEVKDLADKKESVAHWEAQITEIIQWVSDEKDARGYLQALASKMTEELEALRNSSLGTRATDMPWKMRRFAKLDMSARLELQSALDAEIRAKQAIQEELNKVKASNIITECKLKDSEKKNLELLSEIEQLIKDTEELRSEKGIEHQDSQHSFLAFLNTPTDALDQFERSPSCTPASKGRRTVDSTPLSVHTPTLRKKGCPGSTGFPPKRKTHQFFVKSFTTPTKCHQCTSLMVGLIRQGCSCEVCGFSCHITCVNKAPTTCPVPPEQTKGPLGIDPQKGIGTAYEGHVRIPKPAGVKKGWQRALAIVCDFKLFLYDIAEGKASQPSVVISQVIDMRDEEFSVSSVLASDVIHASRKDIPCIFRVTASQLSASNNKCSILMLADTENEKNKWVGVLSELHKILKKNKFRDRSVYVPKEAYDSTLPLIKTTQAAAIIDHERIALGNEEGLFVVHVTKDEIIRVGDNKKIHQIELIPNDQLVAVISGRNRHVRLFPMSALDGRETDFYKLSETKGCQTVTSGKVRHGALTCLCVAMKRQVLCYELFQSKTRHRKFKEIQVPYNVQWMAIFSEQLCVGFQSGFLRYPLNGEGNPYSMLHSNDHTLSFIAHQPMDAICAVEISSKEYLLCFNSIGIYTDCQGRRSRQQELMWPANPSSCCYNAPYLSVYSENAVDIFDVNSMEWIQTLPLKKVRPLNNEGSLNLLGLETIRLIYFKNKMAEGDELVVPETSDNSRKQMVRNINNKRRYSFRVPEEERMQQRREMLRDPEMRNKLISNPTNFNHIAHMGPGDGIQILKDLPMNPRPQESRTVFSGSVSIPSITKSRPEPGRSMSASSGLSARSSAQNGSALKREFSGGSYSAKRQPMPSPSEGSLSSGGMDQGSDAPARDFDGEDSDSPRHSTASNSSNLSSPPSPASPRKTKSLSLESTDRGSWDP
Sequence of kinase named in conditions (Homo sapiens, UniProt O15075) (O15075 whole entry): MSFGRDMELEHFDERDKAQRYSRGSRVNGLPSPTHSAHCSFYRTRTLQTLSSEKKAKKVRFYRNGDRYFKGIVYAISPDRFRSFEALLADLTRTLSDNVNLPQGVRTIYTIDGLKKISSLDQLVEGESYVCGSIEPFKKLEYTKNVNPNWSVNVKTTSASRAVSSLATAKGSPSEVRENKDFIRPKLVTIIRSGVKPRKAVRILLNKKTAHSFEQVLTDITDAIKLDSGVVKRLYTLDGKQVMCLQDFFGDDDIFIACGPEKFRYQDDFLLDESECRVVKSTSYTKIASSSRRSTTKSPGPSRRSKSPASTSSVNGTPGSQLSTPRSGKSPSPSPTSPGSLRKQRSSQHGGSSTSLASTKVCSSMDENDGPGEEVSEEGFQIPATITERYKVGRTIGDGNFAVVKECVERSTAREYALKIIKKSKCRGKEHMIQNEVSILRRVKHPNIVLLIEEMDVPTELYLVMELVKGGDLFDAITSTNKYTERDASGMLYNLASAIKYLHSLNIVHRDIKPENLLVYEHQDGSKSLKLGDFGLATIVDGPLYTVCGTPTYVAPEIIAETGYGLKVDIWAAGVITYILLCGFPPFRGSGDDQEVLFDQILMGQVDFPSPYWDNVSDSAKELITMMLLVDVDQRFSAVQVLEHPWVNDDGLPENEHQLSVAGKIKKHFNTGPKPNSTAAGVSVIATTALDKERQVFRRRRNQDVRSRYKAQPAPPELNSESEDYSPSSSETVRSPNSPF
Sequence of kinase named in conditions (Homo sapiens, UniProt Q6VAB6) (Q6VAB6 whole entry): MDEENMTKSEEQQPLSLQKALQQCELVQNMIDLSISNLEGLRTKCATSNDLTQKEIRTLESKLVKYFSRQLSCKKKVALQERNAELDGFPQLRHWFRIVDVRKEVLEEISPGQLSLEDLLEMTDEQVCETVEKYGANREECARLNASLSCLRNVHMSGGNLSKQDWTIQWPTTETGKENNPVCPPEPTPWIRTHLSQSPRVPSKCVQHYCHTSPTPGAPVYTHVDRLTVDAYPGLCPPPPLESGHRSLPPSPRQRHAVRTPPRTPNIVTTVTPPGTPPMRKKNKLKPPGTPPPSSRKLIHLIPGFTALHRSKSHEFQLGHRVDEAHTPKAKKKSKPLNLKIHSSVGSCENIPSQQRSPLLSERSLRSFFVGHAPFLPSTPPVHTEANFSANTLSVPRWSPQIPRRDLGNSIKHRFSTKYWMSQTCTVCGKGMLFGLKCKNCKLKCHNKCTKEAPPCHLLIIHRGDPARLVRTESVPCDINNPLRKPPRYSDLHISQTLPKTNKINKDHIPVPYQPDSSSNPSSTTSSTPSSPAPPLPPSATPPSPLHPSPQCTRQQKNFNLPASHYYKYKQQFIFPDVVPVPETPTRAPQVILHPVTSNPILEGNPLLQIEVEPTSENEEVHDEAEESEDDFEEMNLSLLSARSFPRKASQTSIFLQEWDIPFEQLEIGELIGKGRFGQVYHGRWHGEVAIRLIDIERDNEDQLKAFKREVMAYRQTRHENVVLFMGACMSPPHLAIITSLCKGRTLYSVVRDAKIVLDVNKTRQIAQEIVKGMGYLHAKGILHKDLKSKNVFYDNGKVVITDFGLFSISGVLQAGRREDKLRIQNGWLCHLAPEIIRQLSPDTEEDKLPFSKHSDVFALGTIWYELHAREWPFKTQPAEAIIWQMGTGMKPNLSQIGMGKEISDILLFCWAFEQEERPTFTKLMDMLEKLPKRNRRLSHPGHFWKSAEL
Sequence of kinase named in conditions (Homo sapiens, UniProt Q13237) (Q13237 whole entry): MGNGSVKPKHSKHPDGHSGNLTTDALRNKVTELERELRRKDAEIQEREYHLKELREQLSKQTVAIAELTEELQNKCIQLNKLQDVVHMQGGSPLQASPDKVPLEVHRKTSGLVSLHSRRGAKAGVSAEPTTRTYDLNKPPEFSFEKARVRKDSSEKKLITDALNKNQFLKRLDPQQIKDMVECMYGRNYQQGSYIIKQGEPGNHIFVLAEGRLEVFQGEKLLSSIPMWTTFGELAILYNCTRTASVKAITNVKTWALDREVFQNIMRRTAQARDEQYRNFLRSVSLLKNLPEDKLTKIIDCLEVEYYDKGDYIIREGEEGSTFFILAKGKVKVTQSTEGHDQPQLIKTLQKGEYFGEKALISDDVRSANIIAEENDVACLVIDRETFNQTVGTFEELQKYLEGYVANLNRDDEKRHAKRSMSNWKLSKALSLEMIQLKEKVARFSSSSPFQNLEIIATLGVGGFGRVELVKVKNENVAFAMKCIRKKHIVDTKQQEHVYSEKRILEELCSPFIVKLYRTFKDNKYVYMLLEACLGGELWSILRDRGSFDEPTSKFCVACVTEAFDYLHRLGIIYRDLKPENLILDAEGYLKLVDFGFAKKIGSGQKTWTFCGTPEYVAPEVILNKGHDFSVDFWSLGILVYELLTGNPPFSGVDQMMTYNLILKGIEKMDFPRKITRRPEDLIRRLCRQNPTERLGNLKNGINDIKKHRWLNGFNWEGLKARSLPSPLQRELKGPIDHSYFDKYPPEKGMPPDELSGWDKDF

FC(F)(F)c1c(Cl)ccc(-n2ccnn2)c1Cl [8l, 1-(2,4-Dichloro-3-(trifluoromethyl)phenyl)-1H-1,2,3-triazole]
inhibition at 10 µM [1]: 4%
inhibition at 10 µM [2]: 3%
inhibition at 10 µM [3]: 6%
inhibition at 10 µM [4]: -9%
inhibition at 10 µM [5]: 19%
inhibition at 10 µM [6]: 23%
inhibition at 10 µM [7]: 6%
inhibition at 10 µM [8]: 1%
inhibition at 10 µM [9]: 6%
inhibition at 10 µM [10]: 2%
inhibition at 10 µM [11]: -8%
inhibition at 10 µM [12]: 7%
inhibition at 10 µM [13]: -7%
inhibition at 10 µM [14]: 23%
inhibition at 10 µM [15]: 4%
inhibition at 10 µM [16]: 15%
inhibition at 10 µM [17]: 3%
inhibition at 10 µM [18]: 1%
inhibition at 10 µM [19]: 2%
inhibition at 10 µM [20]: 8%
inhibition at 10 µM [21]: 8%
inhibition at 10 µM [22]: 1%
inhibition at 10 µM [23]: 8%
inhibition at 10 µM [24]: 5%
inhibition at 10 µM [25]: 1%
inhibition at 10 µM [26]: -3%
inhibition at 10 µM [27]: -3%
inhibition at 10 µM [28]: 2%
inhibition at 10 µM [29]: 1%
inhibition at 10 µM [30]: 6%
inhibition at 10 µM [31]: 18%
inhibition at 10 µM [32]: 4%
inhibition at 10 µM [33]: -3%
inhibition at 10 µM [34]: -2%
inhibition at 10 µM [35]: 15%
